According to patent US20230118497A1, “PYRAZOLE-CONTAINING POLYCYCLIC DERIVATIVE INHIBITOR, PREPARATION METHOD THEREFOR AND APPLICATION THEREOF” (Shanghai Hansoh Biomedical Co., Ltd., priority 2019, published 2023):

Legend:
1321N1-hP2X3 receptor = target: T1, 1321N1-hP2X3 receptor (Homo sapiens, UniProt P56373); assay: Calcium ion mobility (FLIPR) in cells stably expressing 1321N1-hP2X3 receptors; assay type: cell-based; details: calcium signal, agonist at EC80
T1 construct: host or cells: 1321N1
T1 sequence (P56373 1-397): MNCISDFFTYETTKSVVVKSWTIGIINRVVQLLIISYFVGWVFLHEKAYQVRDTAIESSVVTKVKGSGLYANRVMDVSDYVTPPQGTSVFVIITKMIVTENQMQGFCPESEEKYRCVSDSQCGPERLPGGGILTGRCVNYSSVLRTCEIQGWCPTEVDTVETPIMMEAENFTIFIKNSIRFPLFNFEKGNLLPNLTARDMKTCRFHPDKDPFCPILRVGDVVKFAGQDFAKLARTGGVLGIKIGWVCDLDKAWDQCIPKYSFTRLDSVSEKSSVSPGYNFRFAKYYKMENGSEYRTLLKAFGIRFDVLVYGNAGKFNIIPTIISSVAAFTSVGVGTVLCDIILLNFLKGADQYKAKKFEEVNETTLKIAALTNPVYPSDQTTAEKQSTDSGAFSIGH
Experimental: Test Example 1. Determination of the Effect of the Compounds of the Present Invention on Calcium Ion Mobility in Cells Stably Expressing 1321N1-hP2X3 Receptors
To determine the inhibitory activity of the compounds on 1321N1-hP2X3 receptor.
Stably transfected cell line: 1321N1-hP2X3 (supplied by Shanghai ChemPartner Chemical Research Co., Ltd.).
(§1) Assay buffer: 1*HBSS+20 mM HEPES;
Cell culture medium: DMEM+10% FBS+75 µg/mL Hygromycin B+300 µg/mL G418;
(§2) Plating medium: DMEM+10% DPBS;
(§3) 0.5*Dye: 10*Dye stock+1.25 Probenecid+1*assay buffer+0.5 U/mL ATP hydrolytic enzyme;
(§4) 2. The cells were cultured to 70%-90% confluency in the cell culture medium at 37° C., 5% CO2. The medium was discarded, and the cells were added with 2 mL of Versene, and the cells were placed in an incubator at 37° C. for 2 to 5 min. The cells were collected by addition of 10 mL of plating medium and counted. The cells were seeded to the 384-well assay plate by addition of 50 μL solution (a density of 1×10^4 cells/well) to each well, and incubated for 16 to 24 hours (at least overnight).
(§5) 3. The medium was discarded, and 30 μL of 1× dye was added. The cells were incubated at 37° C. in the dark for 60 min.
(§6) 4. The compound powder was dissolved in DMSO to obtain a 20 mM stock solution. 180× compound with required concentration was formulated, and diluted in gradient for concentration points.
(§7) 5. Preparation of compound plate: 500 nL of 180× compound was transferred to the compound plate (source plate for FLIPR) using ECHO. 30 μL of assay buffer was added to each well, and the plate was shaken gently for 20 to 40 minutes.
(§8) 6. Determination: 15 μL of 3× compound was taken from each well and added to the cell plate. The samples were added by FLIPR instrument, and the calcium signals were detected. After 15 minutes, 22.5 μL of 3× agonist (EC80 concentration) was added to each well and the calcium signals were detected.
(§9) The calcium signal values were determined by FLIPR. The ratio of the 340/510 nm wavelength signals to 380/510 nm wavelength signals was used as the calculated results for each sampling time point in the experiment. The calculation of maximum minus minimum was derived from the ratio signal curve.
(§10) The percent inhibition rate and ten-point concentration data were fitted to the parametric nonlinear logistic equation by using GraphPad prism to calculate the IC50 values of the compounds.

1321N1-hP2X2/3 receptor = target: T2, 1321N1-hP2X2/3 receptor (Homo sapiens, UniProt P56373+Q9UBL9); assay: Calcium ion mobility (FLIPR) in cells stably expressing 1321N1-hP2X2/3 receptors; assay type: cell-based; details: calcium signal, agonist at EC80
T2 construct: host or cells: 1321N1
T2 sequence (P56373 1-397): T1 sequence (P56373 1-397)
T2 sequence (Q9UBL9 1-471): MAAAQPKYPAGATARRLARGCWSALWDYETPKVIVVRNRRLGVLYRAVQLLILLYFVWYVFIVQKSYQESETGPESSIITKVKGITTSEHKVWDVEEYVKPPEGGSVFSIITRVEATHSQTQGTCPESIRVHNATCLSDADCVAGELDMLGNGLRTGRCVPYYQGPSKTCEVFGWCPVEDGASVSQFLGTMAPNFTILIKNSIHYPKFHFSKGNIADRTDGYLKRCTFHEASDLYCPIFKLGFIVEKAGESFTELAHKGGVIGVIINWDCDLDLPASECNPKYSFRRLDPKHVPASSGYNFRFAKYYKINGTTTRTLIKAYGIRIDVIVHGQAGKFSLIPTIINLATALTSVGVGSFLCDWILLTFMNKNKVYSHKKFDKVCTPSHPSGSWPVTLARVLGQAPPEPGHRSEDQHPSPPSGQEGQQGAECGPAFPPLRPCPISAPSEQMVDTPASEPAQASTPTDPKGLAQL
Experimental: Test Example 2. Determination of the Effect of the Compounds of the Present Invention on Calcium Ion Mobility in Cells Stably Expressing 1321N1-hP2X2/3 Receptors
To determine the inhibitory activity of the compounds on 1321N1-hP2X2/3 receptor.
Stably transfected cell line: 1321N1-hP2X2/3 (supplied by Shanghai ChemPartner Chemical Research Co., Ltd.).
as §1
Cell culture medium: DMEM+10% FBS+75 μg/mL Hygromycin B+150 μg/mL G418;
as §2, §3, §4, §5, §6, §7, §8, §9, §10

P2X3/P2X2/3 = details: background; cited from earlier work
[1] = clinical stage; cited from earlier work
[2] = Pharmacokinetic assay in Balb/C mice; assay type: in vivo; details: male, mouse, po, p.o. 5 mg/kg, plasma, 0.5% CMC-Na (1% Tween 80)
Experimental: Test Example 3. Pharmacokinetic Assay in Balb/C Mice
Balb/C mice were used as test animals. The pharmacokinetic behavior of the compounds of Examples was studied in mouse body (plasma) by orally administration at a dose of 5 mg/kg.
Male Balb/C mice (6 mice per group), purchased from Shanghai Jiesijie Laboratory Animal Co., LTD, with Certificate No.: SCXK (Shanghai) 2013-0006 N0.311620400001794.
5 g of hydroxyethyl cellulose (HEC, CMC-Na, viscosity: 800-1200 Cps) was weighed and dissolved in 1000 mL of purified water, followed by addition of 10 g of Tween80.
After an overnight fast, male Balb/C mice were administered p.o. with the test compound at a dose of 5 mg/kg and a volume of 10 mL/kg.
0.04 mL of blood was taken from the orbit of the mouse before administration and at 0, 0.5, 1, 2, 4, 6, 8 and 24 hours after administration. The samples were stored in EDTA-K2 tubes, and centrifuged for 6 minutes at 4° C., 6000 rpm to separate the plasma. The plasma samples were stored at −80° C.
1) 160 μL of acetonitrile was added to 20 μL of the plasma sample for precipitation, and then the mixture was centrifuged at 3500×g for 5 to 20 minutes. 2) After the above process, 100 μL of the supernatant was taken to analyze the concentration of the test compound by LC/MS/MS.
2.7 Liquid Chromatography Analysis • Liquid chromatography condition: Shimadzu LC-20AD pump • Mass spectrometry condition: AB Sciex API 4000 mass spectrometer • Chromatographic column: phenomenex Gemiu 5 um C18 50×4.6 mm • Mobile phase: Eluent A was 0.1% formic acid in water, and Eluent B was acetonitrile • Flow rate: 0.8 mL/min • Elution time: 0-4.0 minutes the eluent is as follows:
The main parameters of pharmacokinetics were calculated by WinNonlin 8.2.

Compound	IC50 (1321N1-hP2X3 receptor)	IC50 (1321N1-hP2X2/3 receptor)	also measured
Cc1cc(-c2cc3n(CC(=O)Nc4ccc(F)cn4)c(=O)c4ccc(C(F)(F)F)nc4n3n2)c(C)cn1 [Example 40]	292 nM	16.7 µM	
O=C(Cn1c(=O)c2ccc(C(F)(F)F)nc2n2nccc12)Nc1ccc(Cl)cn1 [Example 83, N-(5-Chloropyridin-2-yl)-2-(5-oxo-8-(trifluoromethyl)pyrazolo[1,5-a]pyrido[3,2-e]pyrimidin-4(5H)-yl)acetamide]	137 nM	> 30 µM	
Cc1cnccc1-c1cc2n(CC(=O)Nc3ccc(F)cn3)c(=O)c3ccc(C(F)(F)F)nc3n2n1 [Example 63, N-(5-Fluoropyridin-2-yl)-2-(2-(3-methylpyridin-4-yl)-5-oxo-8-(trifluoromethyl)pyrazolo[1,5-a]pyrido[3,2-e]pyrimidin-4(5H)-yl)acetamide]	238 nM		
O=C(Cn1c(=O)c2ccc(C(F)(F)F)nc2n2nc(C(F)(F)F)cc12)Nc1ccc(F)cn1 [Example 66, N-(5-Fluoropyridin-2-yl)-2-(5-oxo-2,8-bis(trifluoromethyl)pyrazolo[1,5-a]pyrido[3,2-e]pyrimidin-4(5H)-yl)acetamide]	130 nM		
CC1(c2cc3n(CC(=O)Nc4ccc(F)cn4)c(=O)c4ccc(C(F)(F)F)nc4n3n2)CC1 [Example 59, N-(5-Fluoropyridin-2-yl)-2-(2-(1-methylcyclopropyl)-5-oxo-8-(trifluoromethyl)pyrazolo[1,5-a]pyrido[3,2-e]pyrimidin-4(5H)-yl)acetamide]	259 nM	32.2 µM	
O=C(Cn1c(=O)c2ccc(C(F)(F)F)nc2n2nc(C(=O)N3CCC3)cc12)Nc1ccc(F)cn1 [Example 74, 2-(2-(Azetidine-1-carbonyl)-5-oxo-8-(trifluoromethyl)pyrazolo[1,5-a]pyrido[3,2-e]pyrimidin-4(5H)-yl)-N-(5-fluoropyridin-2-yl)acetamide]	203 nM		
O=C(Cn1c(=O)c2ccc(C(F)(F)F)nc2n2nc(Cl)cc12)Nc1ccc(F)cn1 [Example 79, 2-(2-Chloro-5-oxo-8-(trifluoromethyl)pyrazolo[1,5-a]pyrido[3,2-e]pyrimidin-4(5H)-yl)-N-(5-fluoropyridin-2-yl)acetamide]	34.7 nM		
O=C(Cn1c(=O)c2ccc(C(F)(F)F)nc2n2nc(C3CC3)cc12)Nc1ccc(F)cn1 [Example 35, 2-(2-Cyclopropyl-5-oxo-8-(trifluoromethyl)pyrazolo[1,5-a]pyrido[3,2-e]pyrimidin-4(5H)-yl)-N-(5-fluoropyridin-2-yl)acetamide]	77.7 nM	> 30 µM	
CC(C)c1cc2n(CC(=O)Nc3ccc(F)cn3)c(=O)c3ccc(C(F)(F)F)nc3n2n1 [Example 36, N-(5-Fluoropyridin-2-yl)-2-(2-isopropyl-5-oxo-8-(trifluoromethyl)pyrazolo[1,5-a]pyrido[3,2-e]pyrimidin-4(5H)-yl)acetamide]	185 nM		
O=C(Cn1c(=O)c2ccc(C(F)(F)F)nc2n2nc(C3CCCC3)cc12)Nc1ccc(F)cn1 [Example 37, 2-(2-Cyclopentyl-5-oxo-8-(trifluoromethyl)pyrazolo[1,5-a]pyrido[3,2-e]pyrimidin-4(5H)-yl)-N-(5-fluoropyridin-2-yl)acetamide]	337 nM		
COc1cc(C(C)C)c(Oc2cnc(N)nc2N)cc1S(N)(=O)=O [MK-7264]			selectivity to P2X3/P2X2/3 (P2X3/P2X2/3): low selectivity; side effects [1]: loss of taste
O=C(Cn1c(=O)c2ccc(C(F)(F)F)nc2n2nc(C3CCCCC3)cc12)Nc1ccc(F)cn1 [Example 62, 2-(2-Cyclohexyl-5-oxo-8-(trifluoromethyl)pyrazolo[1,5-a]pyrido[3,2-e]pyrimidin-4(5H)-yl)-N-(5-fluoropyridin-2-yl)acetamide]	385 nM		
CC(C)(C)c1cc2n(CC(=O)Nc3ccc(F)cn3)c(=O)c3ccc(C(F)(F)F)nc3n2n1 [Example 30, 2-(2-(Tert-butyl)-5-oxo-8-(trifluoromethyl)pyrazolo[1,5-a]pyrido[3,2-e]pyrimidin-4(5H)-yl)-N-(5-fluoropyridin-2-yl)acetamide]	88.2 nM	14.5 µM	AUC(0-t) ([2]; read-out: Area under curve AUC0-t): 10900 ng·h/mL; MRT inf ([2]; read-out: Average residence time MRT0-∞): 2.16 h; half-life ([2]; read-out: Half life t1/2 (converted)): 81.6 min; Tmax ([2]; read-out: Peak time tmax): 30 min; Cmax ([2]; read-out: Plasma concentration Cmax): 3550 ng/mL
Cc1cc(-c2cc3n(CC(=O)Nc4ccc(F)cn4)c(=O)c4cccnc4n3n2)c(C)cn1 [Example 21]	305 nM		
Cc1ncccc1-c1cc2n(CC(=O)Nc3ccc(F)cn3)c(=O)c3ccc(C(F)(F)F)nc3n2n1 [Example 64, N-(5-Fluoropyridin-2-yl)-2-(2-(2-methylpyridin-3-yl)-5-oxo-8-(trifluoromethyl)pyrazolo[1,5-a]pyrido[3,2-e]pyrimidin-4(5H)-yl)acetamide]	149 nM		
CC(C)(C)c1cc2n(CC(=O)Nc3ccc(F)cn3)c(=O)c3cccnc3n2n1 [Example 1, 2-(2-(Tert-butyl)-5-oxopyrazolo[1,5-a]pyrido[3,2-e]pyrimidin-4(5H)-yl)-N-(5-fluoropyridin-2-yl)acetamide]	16.2 nM	64.4 µM	
